Reference: patent publication US8759400B2, “Histone deacetylase inhibitors for enhancing activity of antifungal agents” (MethylGene Inc., priority 2005, dated 2014)
Values after ≈ are worked out from the molar mass of the structure shown.

How the values were obtained:
HDAC [1] = assay: HDAC inhibitory activity in fungal protoplasts (Fluor-de-Lys); assay type: cell-based, Candida glabrata; settings: C. glabrata protoplasts
Experimental: (§1) Protoplasts of C. albicans and C. glabrata are prepared by the […] method of Franzusoff et al.

HMEC = assay: Mammalian cytotoxicity, MTT reduction
HDAC [2] = assay: HDAC inhibitory activity in fungal protoplasts (Fluor-de-Lys); assay type: cell-based, Candida albicans; settings: C. albicans protoplasts
Experimental: as §1

C. glabrata (ATCC 90030) [3] = assay: MIC80 and checkerboard synergy with antifungal agents; assay type: cell-based, Candida glabrata; settings: Nakaseomyces glabratus, ATCC90030; compound alone; C. glabrata (ATCC 90030); read-out: MIC80
ERG11 expression = ERG11 expression with fluconazole (FIG. 3); assay type: cell-based; settings: compound 6 and fluconazole, C. albicans
C. albicans (ATCC 90028) = assay: MIC80 and checkerboard synergy with antifungal agents; assay type: cell-based, Candida albicans; settings: Candida albicans, ATCC90028; compound alone; C. albicans (ATCC 90028); read-out: MIC80
C. glabrata (ATCC 90030) [4] = assay type: cell-based; settings: agar plates containing 4×MIC of the relevant azole alone
C. glabrata = assay: Post-antifungal effect (PAFE); assay type: cell-based; settings: itraconazole alone at 0.25 MIC
Experimental: The post-antifungal effect (PAFE) is the time needed to achieve one log10 of cell growth after drug removal. One-two colonies are resuspended in 5 ml YPD. […] Cells are incubated at 30° C. overnight. In the morning, the optical density at 600 nm is read. Cells at A600 the closest but not surpassing 0.3 (early log-phase cells) are picked for further treatments as follows: […] Counts of CFU/ml are performed at time zero, before and after diluting the cells and at predetermined time points in order to determine the PAFE and the cidal potential of each drug combination (FIGS. 5-10).

[5] = tested on: C. glabrata parent strain (ATCC 90030) and C. glabrata mutants; assay: microbe, parasite or virus in culture; assay type: cell-based; settings: for MIC80: azole alone
A. flavus = assay: Clinical isolates, CLSI M38-A broth microdilution and checkerboard; assay type: cell-based; settings: itraconazole alone, 48 hour endpoint, listed as ITR

Structure (SMILES)	HDAC inhibition IC50 (HDAC [1])	HDAC inhibition, per cent in parentheses beside IC50 >20 (HDAC [1]; concentration not given)	MTT HMEC (HMEC)	HDAC inhibition IC50 (HDAC [2])	MIC (C. glabrata (ATCC 90030) [3])	ERG11 expression (ERG11 expression)	MIC (C. albicans (ATCC 90028))	frequency of resistant C. glabrata mutants (C. glabrata (ATCC 90030) [4])	PAFE (C. glabrata)	MIC80 ([5]; C. glabrata mutants resistant to that azole)	MIC80 ([5]; C. glabrata parent strain)	MIC80 itraconazole relative to wild type ([5]; fluconazole-resistant mutants (all))	itraconazole MIC80 in presence of Compound 4 ([5]; itraconazole-resistant mutants)	ITR MIC (A. flavus; A. flavus isolate 20351.092)	ITR MIC (A. flavus; A. flavus isolate 20414.083)
O=C(CCc1ccc(CCCc2ccccc2)cc1)NO [Cpd 6]	> 20 µg/mL	22%	40 µM	>20 µg/mL	25 µg/mL	decreases	25 µg/mL	–	–	–	–	–	–	–	–
CCC(C)n1ncn(-c2ccc(N3CCN(c4ccc(OCC5COC(Cn6cncn6)(c6ccc(Cl)cc6Cl)O5)cc4)CC3)cc2)c1=O (stereo not drawn) [itraconazole, reference compound]	–	–	–	–	–	–	–	3×10^−7	No PAFE	> 64 µg/mL	1 µg/mL (≈ 1.42 µM)	64 × wild type	≤ 1 µg/mL	0.5 µg/mL	1.0 µg/mL
